Source: US10240210B2, “Methods of stratifying patients for treatment with retinoic acid receptor-alpha agonists” (Syros Pharmaceuticals, Inc., priority 2016, dated 2019)

Experiments:
EOL-1 = assay: AML cell line anti-proliferation (cell viability, ATPlite or CyQuant); type: cell-based; conditions: Homo sapiens, EOL1, 240 h; EOL-1 AML cell line; five or ten days incubation; read-out: Tamibarotene anti-proliferative potency (EC50)
OCI-AML3 = assay: as above; type: cell-based, human
OCI-AML2 = assay: as above; type: cell-based; conditions: Homo sapiens, 240 h, five or ten days incubation, read-out: Tamibarotene anti-proliferative potency (EC50)
HEL = assay: as above; type: cell-based; conditions: Homo sapiens, 240 h, five or ten days incubation, read-out: Tamibarotene anti-proliferative potency (EC50)
Kasumi-1 = assay: as above; type: cell-based, human
HL60 = assay: as above; type: cell-based; conditions: Homo sapiens, HL-60, 240 h; HL60 (APL cell line); five or ten days incubation; read-out: Tamibarotene anti-proliferative potency (EC50)
Nomo-1 = assay: as above; type: cell-based, human
THP-1 = assay: as above; type: cell-based; conditions: Homo sapiens, 240 h; THP-1 AML cell line; five or ten days incubation; read-out: Tamibarotene anti-proliferative potency (EC50)
KG-1a = assay: as above; type: cell-based, human
AM7577 xenografts = assay: AML patient sample-derived xenograft model; type: in vivo, BALB/c nude immunocompromised mice; conditions: 6 mg per kg orally daily
Method: (§1) Different AML patient sample (AM8096, AM5512, AM7577 and AM7440)-derived xenograft models in BALB/c nude immunocompromised mice are prepared by Crown Biosciences (Beijing, China) essentially as follows.
(§2) Approximately 2×10^6 cells from each patient sample are suspended in 100 μL PBS and injected into separate mice (n=3 for each different patient sample and for the control) by IV tail injection. For AM5512, AM7577 and AM7440 xenografts, tumor burden is considered high enough to start treatment when the concentration of human CD45^+ cells reaches ˜1-5% in the animal's peripheral blood. Human CD45^+ cells are detected in mouse blood (obtained via eye bleeds) using a fluorescence activated cell sorter and FITC anti-human CD45 (Biolegend, Cat#304037). For AM8096 xenografts, treatment is begun 40 days after injection of cells.
(§3) Tamibarotene is administered orally in pH 8 adjusted PBS, 1% DMSO on a daily schedule at a final dose of 6 mg per kg body weight in a 10 ml/kg volume. Mice in the vehicle arm are given the same schedule, volume, and formulation, but lacking tamibarotene. Human CD45^+ cell levels in peripheral blood from the treated animals and control animals are measured once a week.

AM5512 xenografts = assay: AML patient sample-derived xenograft model; type: in vivo, BALB/c nude immunocompromised mice; conditions: 6 mg per kg orally daily, after 35 days of treatment
Method: as §1, §2, §3

AM8096 xenografts = assay: AML patient sample-derived xenograft model; type: in vivo, BALB/c nude immunocompromised mice; conditions: 6 mg per kg orally daily, after 35 days of treatment
Method: as §1, §2, §3

AM7440 xenografts = assay: AML patient sample-derived xenograft model; type: in vivo, BALB/c nude immunocompromised mice; conditions: 6 mg per kg orally daily
Method: as §1, §2, §3

PL21 = assay: AML cell line anti-proliferation (cell viability, ATPlite or CyQuant); type: cell-based; conditions: Homo sapiens, PL-21, 240 h, five or ten days incubation, read-out: Tamibarotene anti-proliferative potency (EC50)
Sig-M5 = assay: as above; type: cell-based, human
MV4-11 = assay: as above; type: cell-based, human
OCI-M1 = assay: as above; type: cell-based, human

Question: With `CC1(C)CCC(C)(C)c2cc(NC(=O)c3ccc(C(=O)O)cc3)ccc21` [tamibarotene] as the molecule, how does the EC50 (EOL-1) read?
Answer: Its EC50 is 0.89 nM.

Question: What about the EC50 (OCI-AML3; Homo sapiens, OCI-AML-3, 240 h, OCI-AML3 AML cell line, five or ten days incubation, read-out: Tamibarotene anti-proliferative potency (EC50)) of the same molecule?
Answer: The EC50 was 0.34 nM.

Question: And the “sensitivity of cell line to tamibarotene” value (OCI-AML3; OCI-AML3)?
Answer: The value was “sensitive”.

Question: What about the EC50 (OCI-AML2) of the same molecule?
Answer: Its EC50 is 0.34 nM.

Question: What about the EC50 (HEL) of the same molecule?
Answer: Its EC50 is over 50000 nM.

Question: What about the EC50 (Kasumi-1; Homo sapiens, 240 h, Kasumi-1 AML cell line, five or ten days incubation, read-out: Tamibarotene anti-proliferative potency (EC50)) of the same molecule?
Answer: Its EC50 is over 50000 nM.

Question: What about the “sensitivity of cell line to tamibarotene” value (Kasumi-1; Kasumi-1) of the same molecule?
Answer: Its value is “insensitive”.

Question: And the EC50 (HL60)?
Answer: The EC50 was 1.64 nM.

Question: What about the EC50 (Nomo-1; Homo sapiens, 240 h, Nomo-1 AML cell line, five or ten days incubation, read-out: Tamibarotene anti-proliferative potency (EC50)) of the same molecule?
Answer: Its EC50 is 0.48 nM.

Question: What about the “sensitivity of cell line to tamibarotene” value (Nomo-1; NOMO-1) of the same molecule?
Answer: Its value is “sensitive”.

Question: And the EC50 (THP-1)?
Answer: Its EC50 is 0.95 nM.

Question: What about the EC50 (KG-1a; Homo sapiens, 240 h, KG-1a AML cell line, five or ten days incubation, read-out: Tamibarotene anti-proliferative potency (EC50)) of the same molecule?
Answer: The EC50 was over 50000 nM.

Question: What about the “sensitivity of cell line to tamibarotene” value (KG-1a; KG1a) of the same molecule?
Answer: Its value is “insensitive”.

Question: And the “tumor volume between tamibarotene treated and vehicle treated animals, overall or in blood, bone marrow or spleen” value (AM7577 xenografts)?
Answer: Its value is “no significant reduction”.

Question: And the “total % of CD45+ cells and % of CD45+ cells in blood, bone marrow and spleen, compared to the vehicle control” value (AM5512 xenografts)?
Answer: Its value is “significant reduction”.

Question: What about the “total % of CD45+ cells and % of CD45+ cells in blood, bone marrow and spleen, compared to the vehicle control” value (AM8096 xenografts) of the same molecule?
Answer: Its value is “significant reduction”.

Question: What about the “tumor volume between tamibarotene treated and vehicle treated animals, overall or in blood, bone marrow or spleen” value (AM7440 xenografts) of the same molecule?
Answer: Its value is “no significant reduction”.

Question: What about the EC50 (PL21) of the same molecule?
Answer: The EC50 was 1.41 nM.

Question: What about the EC50 (Sig-M5; Homo sapiens, 240 h, Sig-M5 AML cell line, five or ten days incubation, read-out: Tamibarotene anti-proliferative potency (EC50)) of the same molecule?
Answer: Its EC50 is 0.46 nM.

Question: What about the “sensitivity of cell line to tamibarotene” value (Sig-M5; Sig-M5) of the same molecule?
Answer: Its value is “sensitive”.

Question: What about the EC50 (MV4-11; Homo sapiens, 240 h, MV4-11 AML cell line, five or ten days incubation, read-out: Tamibarotene anti-proliferative potency (EC50)) of the same molecule?
Answer: Its EC50 is 0.17 nM.

Question: What about the “sensitivity of cell line to tamibarotene” value (MV4-11; MV-4-11) of the same molecule?
Answer: The value was “sensitive”.

Question: And the EC50 (OCI-M1; Homo sapiens, 240 h, OCI-M1 AML cell line, five or ten days incubation, read-out: Tamibarotene anti-proliferative potency (EC50))?
Answer: The EC50 was over 50000 nM.

Question: What about the “sensitivity of cell line to tamibarotene” value (OCI-M1; OCI-M1) of the same molecule?
Answer: The value was “insensitive”.
